The subject of experiment [1] is AFB1-ScFV-AP bifunctional fusion protein. The class given is binding.
For experiment [2], the system named is DON-ScFV-AP bifunctional fusion protein. The class given is binding.

For the compound `CC(=O)O[C@@H]1C[C@]2(C)[C@@]3(CO)[C@H](O)C(=O)C(C)=C[C@H]3O[C@H]1[C@@]21CO1` [3-ADON, 3-acetyldeoxynivalenol], the IC50 was more than 100.1 ppm in experiment [1] and 2.3 ppb in experiment [2]. Moreover, in experiment [2], the “cross-reaction (in words)” value is “obvious cross-reaction”.

For the compound `CC(=O)OC[C@]12[C@H](O)C(=O)C(C)=C[C@H]1O[C@@H]1[C@H](O)C[C@@]2(C)[C@]12CO2` [15-ADON, 15-acetyldeoxynivalenol], the IC50 is more than 100.4 ppm in experiment [1] and 64 ppb in experiment [2].

On to `CC1=C[C@H]2O[C@@H]3[C@H](O)C[C@](C)([C@@]2(CO)[C@H](O)C1=O)[C@]31CO1` [DON, Deoxynivalenol], for which the values for the IC50 in experiment [1] and in experiment [2] were more than 10 ppm and 2.4 ppb, respectively.

`CC1=C[C@H]2O[C@@H]3[C@H](O[C@@H]4O[C@H](CO)[C@@H](O)[C@H](O)[C@H]4O)C[C@](C)([C@@]2(CO)[C@H](O)C1=O)[C@]31CO1` [DON-3G, deoxynivalenol-3-glucoside] displayed an IC50 in experiment [1] of more than 50 ppm.

Compound `CCCC[C@@H](C)[C@@H](OC(=O)C[C@@H](CC(=O)O)C(=O)O)[C@H](C[C@@H](C)C[C@H](O)CCCC[C@@H](O)C[C@H](O)[C@H](C)N)OC(=O)C[C@@H](CC(=O)O)C(=O)O` [FB1, fumonisin B1] returned an IC50 in experiment [1] of more than 28.6 ppm.

`CCCC[C@@H](C)[C@@H](OC(=O)C[C@@H](CC(=O)O)C(=O)O)[C@H](C[C@@H](C)CCCCCC[C@@H](O)C[C@H](O)[C@H](C)N)OC(=O)C[C@@H](CC(=O)O)C(=O)O` [FB2, fumonisin B2] returned an IC50 in experiment [1] of more than 28.6 ppm.

For the compound `CCCC[C@@H](C)[C@@H](OC(=O)C[C@@H](CC(=O)O)C(=O)O)[C@H](C[C@@H](C)C[C@H](O)CCCCCC[C@H](O)[C@H](C)N)OC(=O)C[C@@H](CC(=O)O)C(=O)O` [FB3, fumonisin B3], the IC50 in experiment [1] is on record as more than 28.6 ppm.

Consider `CC1=C[C@H]2O[C@@H]3[C@H](O)[C@@H](O)[C@](C)([C@@]2(CO)[C@H](O)C1=O)[C@]31CO1` [NIV, nivalenol], for which the IC50 is on record as more than 100.4 ppm in experiment [1] and 610 ppb in experiment [2].

As to `C[C@@H]1Cc2c(Cl)cc(C(=O)N[C@@H](Cc3ccccc3)C(=O)O)c(O)c2C(=O)O1` [OTA, ochratoxin A], the IC50 in experiment [1] and in experiment [2] was more than 1.9 ppm throughout.

In the case of `C[C@H]1CCCC(=O)CCC/C=C/c2cc(O)cc(O)c2C(=O)O1` [ZEN, zearalenone], the IC50 in experiment [1] and in experiment [2] was more than 20 ppm each time.

T-2 toxin: the IC50 in experiment [1] and in experiment [2] was more than 100 ppm each time.

Regarding aflatoxin B1 [AFB1], the IC50 in experiment [1] is 0.5 ppb; in experiment [2], more than 2 ppm.

Take aflatoxin B2 [AFB2]: the IC50 in experiment [1] worked out at 1.9 ppb.

The compound aflatoxin G1 [AFG1] came in with an IC50 in experiment [1] of 2.1 ppb.

As for aflatoxin G2 [AFG2], the IC50 in experiment [1] is 8.1 ppb.

The record behind these values is patent US12306178B2 (priority 2022, dated 2025).
